PubChem BioAssay AID2060341 (Molecular Pharmacology Branch, DTP, NCI, 2025)
Values joined by “and” are separate entries in the source; they are usually repeats but may differ in a detail not shown here. Equal values may be shown once.

Test system: 327498-153-R-J2-PDC multicell spheroid viability
Test: Anticancer human tumor 327498-153-R-J2-PDC patient-derived uterine carcinosarcoma cell line growth inhibition [IpAb]
Conditions: for viability, T/C: stronger effect = lower value
Method in brief: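 Combinations with ipatasertib or abemaciclib were tested on tumour spheroids holding HUVEC (25%) and MSC (15%) alongside 60% malignant cells. Top concentration was at or near clinical Cmax (10 microM if undefined), descending in half-log steps.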

[1] = curve of first compound, second compound 0.1 µM
[2] = curve of first compound, second compound 0.316 µM
[3] = curve of first compound, second compound 1 µM
[4] = second compound 0.1 µM, first compound 0.0316 µM
[5] = second compound 0.1 µM, first compound 0.1 µM
[6] = second compound 0.316 µM, first compound 0.0316 µM
[7] = second compound 0.316 µM, first compound 0.1 µM
[8] = second compound 1 µM, first compound 0.0316 µM
[9] = second compound 1 µM, first compound 0.1 µM
[10] = curve of first compound, second compound 0.01 µM
[11] = curve of first compound, second compound 0.0316 µM
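Further: spheroids exposed to agents for 7 days.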
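Wherever viability, T/C is given: 100% = DMSO vehicle control viability.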

For `CC(C)n1nc(-c2ccc3oc(N)nc3c2)c2c(N)ncnc21` + CC(C)NCC(C(=O)N1CCN(c2ncnc3c2C(C)CC3O)CC1)c1ccc(Cl)cc1, the IC50 [1] was 5.3 nM, the IC50 [2] was 1.76 nM and the IC50 [3] was 0.442 nM. The IC50 (curve of first compound, second compound 3.16 µM) was < 0.316 nM, the IC50 (curve of first compound, second compound 10 µM) was < 0.316 nM and the viability, T/C (second compound 0.1 µM, first compound 0.000316 µM) was 83.5%. The viability, T/C (second compound 0.1 µM, first compound 0.001 µM) was 80%, the viability, T/C (second compound 0.1 µM, first compound 0.00316 µM) was 60.3% and the viability, T/C (second compound 0.1 µM, first compound 0.01 µM) was 36.6%. It also gave a viability, T/C [4] of 20.7%, a viability, T/C [5] of 15.7% and a viability, T/C (second compound 0.316 µM, first compound 0.000316 µM) of 74.6%. For the same compound, the viability, T/C (second compound 0.316 µM, first compound 0.001 µM) was 56.5%, the viability, T/C (second compound 0.316 µM, first compound 0.00316 µM) was 44% and the viability, T/C (second compound 0.316 µM, first compound 0.01 µM) was 24.4%. The viability, T/C [6] was 16.6%, the viability, T/C [7] was 13.3% and the viability, T/C (second compound 1 µM, first compound 0.000316 µM) was 55.1%. The viability, T/C (second compound 1 µM, first compound 0.001 µM) was 36.9%, the viability, T/C (second compound 1 µM, first compound 0.00316 µM) was 28.4% and the viability, T/C (second compound 1 µM, first compound 0.01 µM) was 16.8%. The viability, T/C [8] was 10.6%, the viability, T/C [9] was 11% and the viability, T/C (second compound 3.16 µM, first compound 0.000316 µM) was 39.2%. For the same compound, the viability, T/C (second compound 3.16 µM, first compound 0.001 µM) was 29.1%, the viability, T/C (second compound 3.16 µM, first compound 0.00316 µM) was 19.9% and the viability, T/C (second compound 3.16 µM, first compound 0.01 µM) was 11.5%. It also gave a viability, T/C (second compound 3.16 µM, first compound 0.0316 µM) of 8.42%, a viability, T/C (second compound 3.16 µM, first compound 0.1 µM) of 7.91% and a viability, T/C (second compound 10 µM, first compound 0.000316 µM) of 26.9%. The viability, T/C (second compound 10 µM, first compound 0.001 µM) was 24%, the viability, T/C (second compound 10 µM, first compound 0.00316 µM) was 13.7% and the viability, T/C (second compound 10 µM, first compound 0.01 µM) was 9.73%. It also gave a viability, T/C (second compound 10 µM, first compound 0.0316 µM) of 6.51% and a viability, T/C (second compound 10 µM, first compound 0.1 µM) of 6.09%.

For `Cc1nc(NC(=O)N2CCCC2C(N)=O)sc1-c1ccnc(C(C)(C)C(F)(F)F)c1` (configuration not stated), the viability, T/C (compound 0.0316 µM) was 97.9% and 110%, the viability, T/C (compound 0.1 µM) was 95.7% and 102% and the viability, T/C (compound 0.316 µM) was 90% and 98.9%. The viability, T/C (compound 1 µM) was 77% and 89.3%, the viability, T/C (compound 3.16 µM) was 76.2% and 80.2% and the viability, T/C (compound 10 µM) was 63% and 60.7%. The IC50 (curve of compound) was > 10000 nM.

With `CC(C)(C)c1cnc(CSc2cnc(NC(=O)C3CCNCC3)s2)o1` + CCN1CCN(Cc2ccc(Nc3ncc(F)c(-c4cc(F)c5nc(C)n(C(C)C)c5c4)n3)nc2)CC1 the IC50 [10] was 142 nM, the IC50 [11] was 105 nM and the IC50 [1] was 83.4 nM. The IC50 [2] was 37.5 nM, the IC50 [3] was 34.4 nM and the viability, T/C (second compound 0.01 µM, first compound 0.00949 µM) was 90%. It also gave a viability, T/C (second compound 0.01 µM, first compound 0.03 µM) of 80.7%, a viability, T/C (second compound 0.01 µM, first compound 0.0949 µM) of 75.5% and a viability, T/C (second compound 0.01 µM, first compound 0.3 µM) of 2.61%. It also gave a viability, T/C (second compound 0.01 µM, first compound 0.949 µM) of 0.63%, a viability, T/C (second compound 0.01 µM, first compound 3 µM) of 0.6% and a viability, T/C (second compound 0.0316 µM, first compound 0.00949 µM) of 76.8%. The viability, T/C (second compound 0.0316 µM, first compound 0.03 µM) was 68.4%, the viability, T/C (second compound 0.0316 µM, first compound 0.0949 µM) was 54.6% and the viability, T/C (second compound 0.0316 µM, first compound 0.3 µM) was 1.44%. For the same compound, the viability, T/C (second compound 0.0316 µM, first compound 0.949 µM) was 0.56%, the viability, T/C (second compound 0.0316 µM, first compound 3 µM) was 0.66% and the viability, T/C (second compound 0.1 µM, first compound 0.00949 µM) was 57.6%. For the same compound, the viability, T/C (second compound 0.1 µM, first compound 0.03 µM) was 67.6%, the viability, T/C (second compound 0.1 µM, first compound 0.0949 µM) was 48.4% and the viability, T/C (second compound 0.1 µM, first compound 0.3 µM) was 0.6%. It also gave a viability, T/C (second compound 0.1 µM, first compound 0.949 µM) of 0.61%, a viability, T/C (second compound 0.1 µM, first compound 3 µM) of 0.61% and a viability, T/C (second compound 0.316 µM, first compound 0.00949 µM) of 51.6%. For the same compound, the viability, T/C (second compound 0.316 µM, first compound 0.03 µM) was 54.3%, the viability, T/C (second compound 0.316 µM, first compound 0.0949 µM) was 37.6% and the viability, T/C (second compound 0.316 µM, first compound 0.3 µM) was 0.81%. The viability, T/C (second compound 0.316 µM, first compound 0.949 µM) was 0.6%, the viability, T/C (second compound 0.316 µM, first compound 3 µM) was 0.72% and the viability, T/C (second compound 1 µM, first compound 0.00949 µM) was 55.4%. The viability, T/C (second compound 1 µM, first compound 0.03 µM) was 50.8%, the viability, T/C (second compound 1 µM, first compound 0.0949 µM) was 29.8% and the viability, T/C (second compound 1 µM, first compound 0.3 µM) was 0.56%. For the same compound, the viability, T/C (second compound 1 µM, first compound 0.949 µM) was 1.62% and the viability, T/C (second compound 1 µM, first compound 3 µM) was 0.76%.

With `Cn1nccc1Nc1nccc(-c2ccn(C(CO)c3ccc(Cl)c(F)c3)c(=O)c2)n1` (configuration not stated) + CCN1CCN(Cc2ccc(Nc3ncc(F)c(-c4cc(F)c5nc(C)n(C(C)C)c5c4)n3)nc2)CC1 the IC50 [10] was 3680 nM, the IC50 [11] was 1960 nM and the IC50 [1] was 657 nM. The IC50 [2] was < 31.6 nM, the IC50 [3] was < 31.6 nM and the viability, T/C (second compound 0.01 µM, first compound 0.0316 µM) was 78%. For the same compound, the viability, T/C (second compound 0.01 µM, first compound 0.1 µM) was 70.3%, the viability, T/C (second compound 0.01 µM, first compound 0.316 µM) was 67% and the viability, T/C (second compound 0.01 µM, first compound 1 µM) was 74.3%. It also gave a viability, T/C (second compound 0.01 µM, first compound 3.16 µM) of 53.6%, a viability, T/C (second compound 0.01 µM, first compound 10 µM) of 26.7% and a viability, T/C (second compound 0.0316 µM, first compound 0.0316 µM) of 69.1%. It also gave a viability, T/C (second compound 0.0316 µM, first compound 0.1 µM) of 55.4%, a viability, T/C (second compound 0.0316 µM, first compound 0.316 µM) of 52.8% and a viability, T/C (second compound 0.0316 µM, first compound 1 µM) of 57.9%. It also gave a viability, T/C (second compound 0.0316 µM, first compound 3.16 µM) of 48%, a viability, T/C (second compound 0.0316 µM, first compound 10 µM) of 30.4% and a viability, T/C [4] of 55.6%. The viability, T/C [5] was 50%, the viability, T/C (second compound 0.1 µM, first compound 0.316 µM) was 48.5% and the viability, T/C (second compound 0.1 µM, first compound 1 µM) was 49.2%. For the same compound, the viability, T/C (second compound 0.1 µM, first compound 3.16 µM) was 44%, the viability, T/C (second compound 0.1 µM, first compound 10 µM) was 26.4% and the viability, T/C [6] was 53.5%. The viability, T/C [7] was 42.6%, the viability, T/C (second compound 0.316 µM, first compound 0.316 µM) was 42.4% and the viability, T/C (second compound 0.316 µM, first compound 1 µM) was 44.4%. It also gave a viability, T/C (second compound 0.316 µM, first compound 3.16 µM) of 41.5%, a viability, T/C (second compound 0.316 µM, first compound 10 µM) of 28.1% and a viability, T/C [8] of 46.1%. For the same compound, the viability, T/C [9] was 45.3%, the viability, T/C (second compound 1 µM, first compound 0.316 µM) was 40.3% and the viability, T/C (second compound 1 µM, first compound 1 µM) was 43.6%. For the same compound, the viability, T/C (second compound 1 µM, first compound 3.16 µM) was 45.3% and the viability, T/C (second compound 1 µM, first compound 10 µM) was 30.4%.
